# Data: patent publication US7759345B2, “Antitumoral derivatives of ET-743” (priority 2001, dated 2010)
# Like-named read-outs stand apart in the source and are kept apart here.
# Experiments:
# LNCaP = test: Inhibition of cells growth by colorimetric assay (SRB), LNCaP; assay type: cell-based
# Method in brief: (§1)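 5×10^3 cells/well; 18 h attach; compound 10–10^−8 μg/ml in DMSO/EtOH/PBS (0.5:0.5:99), 48 h, 37 °C, 5% CO2; cold 50% TCA fix 60 min 4 °C; 0.4% SRB 10 min RT; Tris solubilization; OD 490 nm; triplicates.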
# Myelo [1] = test: In vitro toxicity, Myelo
# Excerpt: (§3) Toxicity was asssessed by the methods reported in Toxicology in Vitro, 15 (2001) 571-577, J. Luber Narod et al.: “Evaluation of the use of in vitro methodolodies as tools for screening new compounds for potential in vivo toxicity”.
# SK-OV-3 = test: Inhibition of cells growth by colorimetric assay (SRB), SK-OV-3; assay type: cell-based
# Method in brief: as §1
# IGROV-ET = test: Inhibition of cells growth by colorimetric assay (SRB), IGROV-ET; assay type: cell-based
# Method in brief: as §1
# HT-29 [2] = test: Inhibition of cells growth by colorimetric assay (SRB), HT-29; assay type: cell-based
# Method in brief: as §1
# Skeletal [3] = test: In vitro toxicity, Skeletal
# Excerpt: as §3
# A-549 [4] = test: Inhibition of cells growth by colorimetric assay (SRB), A-549; assay type: cell-based
# Method in brief: as §1
# LoVo = test: Inhibition of cells growth by colorimetric assay (SRB), LoVo; assay type: cell-based
# Method in brief: as §1
# LoVo-Dox = test: Inhibition of cells growth by colorimetric assay (SRB), LoVo-Dox; assay type: cell-based
# Method in brief: as §1
# Kidney [5] = test: In vitro toxicity, Kidney
# Excerpt: as §3
# DU-145 [6] = test: Inhibition of cells growth by colorimetric assay (SRB), DU-145; assay type: cell-based
# Method in brief: as §1
# SK-MEL-28 = test: Inhibition of cells growth by colorimetric assay (SRB), SK-MEL-28; assay type: cell-based
# Method in brief: as §1
# HMEC1 = test: Inhibition of cells growth by colorimetric assay (SRB), HMEC1; assay type: cell-based
# Method in brief: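 Using sulforhodamine B, cell growth and viability are quantified after a 48 h drug exposure of cells maintained in RPMI 1640/10% FBS at 37 °C, 5% CO2. Concentrations span 10 to 10^−8 μg/ml; optical density is read at 490 nm.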
# Liver [7] = test: In vitro toxicity, Liver
# Excerpt: as §3
# SK-BR-3 = test: Inhibition of cells growth by colorimetric assay (SRB), SK-BR-3; assay type: cell-based
# Method in brief: as §1
# IGROV-1 = test: Inhibition of cells growth by colorimetric assay (SRB), IGROV-1; assay type: cell-based
# Method in brief: as §1
# PANC-1 = test: Inhibition of cells growth by colorimetric assay (SRB), PANC-1; assay type: cell-based
# Method in brief: as §1
# Heart [8] = test: In vitro toxicity, Heart
# Excerpt: as §3
# K-562 = test: Inhibition of cells growth by colorimetric assay (SRB), K-562; assay type: cell-based
# Method in brief: as §1
# Liver [9] = test system: Liver
# Excerpt: as §3
# Heart [10] = test system: Heart
# Excerpt: as §3
# P-388 = test: Inhibition of cell growth by counting cells, P-388; assay type: cell-based, mouse; conditions: Mus musculus, P388, 72 h; three days of incubation; read-out: IC50 (molar) P-388
# Method in brief: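 IC50 is the sample concentration halving growth, taken from dose-response curves of cell counts (Coulter counter, duplicate wells) relative to drug-free cultures. P-388 (DBA/2 mouse lymphoid neoplasm) cells plated at 1×10^4 per well in EMEM with 5% FCS plus test sample.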
# DU-145 [11] = test: Inhibition of cell growth by counting cells, DU-145; assay type: cell-based, human; conditions: Homo sapiens, DU-145, 72 h; three days of incubation; read-out: IC50 (molar) DU-145
# Method in brief: (§2)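 1×10^4 cells/well, EMEM 5% FCS + test sample at several concs, duplicates; 3 d, 37° C, 5% CO2, humidified. Trypsinize, Coulter count; % growth vs untreated wells; IC50 from dose-response curve.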
# A-549 [12] = test: Inhibition of cell growth by counting cells, A-549; assay type: cell-based, human; conditions: Homo sapiens, A549, 72 h; three days of incubation; read-out: IC50 (molar) A-549
# Method in brief: as §2
# Myelo [13] = test system: Myelo
# Excerpt: as §3
# Kidney [14] = test system: Kidney
# Excerpt: as §3
# Skeletal [15] = test system: Skeletal
# Excerpt: as §3
# tumor cell culture = test: Bioassays for antitumor screening, cell line not given; assay type: cell-based; conditions: cell line not stated
# Excerpt: Bioassays for Antitumor Screening
# The finality of these assays is to interrupt the growth of a “in vitro” tumor cell culture by means a continued exhibition of the cells to the sample to be testing.
# MEL-28 = test: Inhibition of cell growth by counting cells, MEL-28; assay type: cell-based, human; conditions: Homo sapiens, SK-MEL-28, 72 h; three days of incubation; read-out: IC50 (molar) MEL-28
# Method in brief: as §2
# HT-29 [16] = test: Inhibition of cell growth by counting cells, HT-29; assay type: cell-based, human; conditions: Homo sapiens, HT-29, 72 h; three days of incubation; read-out: IC50 (molar) HT-29
# Method in brief: as §2
smiles,measurement,setting,value
COc1cc2c(cc1O)CCN[C@]21CS[C@@H]2c3c(OC(=O)C(F)(F)C(F)(F)C(F)(F)F)c(C)c4c(c3[C@H](COC1=O)N1C2[C@H]2c3c(cc(C)c(OC)c3O)C[C@@H]([C@@H]1O)N2C)OCO4 (stereo partly shown) [Compound 167],GI50,"LNCaP; Homo sapiens, LNCaP, 48 h, read-out: LNCAP GI50, SRB assay, 48 hours exposure",19.7 nM
same,CC50,"LNCaP; Homo sapiens, LNCaP, 48 h, read-out: LNCAP LC50, SRB assay, 48 hours exposure",73.6 nM
same,LNCAP TGI,"LNCaP; SRB assay, 48 hours exposure",3.80E-08
same,Toxicity Data Myelo,Myelo [1],1.01E-06
same,GI50,"SK-OV-3; Homo sapiens, SK-OV-3, 48 h, read-out: SK-OV3 GI50",40.2 nM
same,LC50,"SK-OV-3; Homo sapiens, SK-OV-3, 48 h, read-out: SK-OV3 LC50, SRB assay, 48 hours exposure",10900 nM
same,SK-OV3 TGI,"SK-OV-3; SRB assay, 48 hours exposure",1.48E-07
same,GI50,"IGROV-ET; Homo sapiens, 48 h, read-out: IGROV-ET GI50",77.6 nM
same,CC50,"IGROV-ET; Homo sapiens, 48 h, read-out: IGROV-ET LC50, SRB assay, 48 hours exposure",5240 nM
same,IGROV-ET TGI,"IGROV-ET; SRB assay, 48 hours exposure",9.05E-07
same,GI50,"HT-29 [2]; Homo sapiens, HT-29, 48 h, read-out: HT-29 GI50",28.9 nM
same,LC50 (concentration for 50% cell killing),"HT-29 [2]; Homo sapiens, HT-29, 48 h, read-out: HT-29 LC50, SRB assay, 48 hours exposure",10900 nM
same,HT-29 TGI,"HT-29 [2]; SRB assay, 48 hours exposure",1.51E-07
same,Toxicity Data Skeletal,Skeletal [3],1.09E-07
same,GI50,"A-549 [4]; Homo sapiens, A549, 48 h, read-out: A-549 GI50",28.3 nM
same,LC50 (concentration for 50% cell killing),"A-549 [4]; Homo sapiens, A549, 48 h, read-out: A-549 LC50, SRB assay, 48 hours exposure",482 nM
same,A-549 TGI,"A-549 [4]; SRB assay, 48 hours exposure",6.54E-08
same,GI50,"LoVo; Homo sapiens, LoVo, 48 h, read-out: LOVO GI50",33.6 nM
same,LC50 (concentration for 50% cell killing),"LoVo; Homo sapiens, LoVo, 48 h, read-out: LOVO LC50, SRB assay, 48 hours exposure",190 nM
same,LOVO TGI,"LoVo; SRB assay, 48 hours exposure",6.74E-08
same,GI50,"LoVo-Dox; Homo sapiens, 48 h, read-out: LOVO-DOX GI50",416 nM
same,CC50,"LoVo-Dox; Homo sapiens, 48 h, read-out: LOVO-DOX LC50, SRB assay, 48 hours exposure",10900 nM
same,LOVO-DOX TGI,"LoVo-Dox; SRB assay, 48 hours exposure",1.58E-06
same,Toxicity Data Kidney,Kidney [5],2.77E-07
same,GI50,"DU-145 [6]; Homo sapiens, DU-145, 48 h, read-out: DU-145 GI50",48.8 nM
same,CC50,"DU-145 [6]; Homo sapiens, DU-145, 48 h, read-out: DU-145 LC50, SRB assay, 48 hours exposure",10900 nM
same,DU-145 TGI,"DU-145 [6]; SRB assay, 48 hours exposure",1.01E-07
same,GI50,"SK-MEL-28; Homo sapiens, SK-MEL-28, 48 h, read-out: MEL-28 GI50",23.8 nM
same,CC50,"SK-MEL-28; Homo sapiens, SK-MEL-28, 48 h, read-out: MEL-28 LC50, SRB assay, 48 hours exposure",107 nM
same,MEL-28 TGI,"SK-MEL-28; SRB assay, 48 hours exposure",5.06E-08
same,GI50,"HMEC1; Homo sapiens, HMEC-1, 48 h, read-out: HMEC-1 GI50",51.5 nM
same,LC50,"HMEC1; Homo sapiens, HMEC-1, 48 h, read-out: HMEC-1 LC50, SRB assay, 48 hours exposure",10900 nM
same,HMEC-1 TGI,"HMEC1; SRB assay, 48 hours exposure",3.49E-07
same,Toxicity Data Liver,Liver [7],4.83E-07
same,GI50,"SK-BR-3; Homo sapiens, SK-BR-3, 48 h, read-out: SK-BR3 GI50",17.6 nM
same,CC50,"SK-BR-3; Homo sapiens, SK-BR-3, 48 h, read-out: SK-BR3 LC50, SRB assay, 48 hours exposure",238 nM
same,SK-BR3 TGI,"SK-BR-3; SRB assay, 48 hours exposure",5.19E-08
same,GI50,"IGROV-1; Homo sapiens, IGROV-1, 48 h, read-out: IGROV GI50",6.46 nM
same,CC50,"IGROV-1; Homo sapiens, IGROV-1, 48 h, read-out: IGROV LC50, SRB assay, 48 hours exposure",89.2 nM
same,IGROV TGI,"IGROV-1; SRB assay, 48 hours exposure",2.49E-08
same,GI50,"PANC-1; Homo sapiens, PANC-1, 48 h, read-out: PANC-1 GI50",46.5 nM
same,LC50 (concentration for 50% net cell kill),"PANC-1; Homo sapiens, PANC-1, 48 h, read-out: PANC-1 LC50, SRB assay, 48 hours exposure",10900 nM
same,PANC-1 TGI,"PANC-1; SRB assay, 48 hours exposure",1.09E-07
same,Toxicity Data Heart,Heart [8],4.28E-07
same,GI50,"K-562; Homo sapiens, K562, 48 h, read-out: K-562 GI50",7 nM
same,LC50 (50% cell killing),"K-562; Homo sapiens, K562, 48 h, read-out: K-562 LC50, SRB assay, 48 hours exposure",71.7 nM
same,K-562 TGI,"K-562; SRB assay, 48 hours exposure",9.64E-09
CCCCCCCCCCCCCCCC(=O)Oc1c(C)c2c(c3c1[C@H]1SC[C@]4(NCCc5cc(O)c(OC)cc54)C(=O)OC[C@@H]3N3C1[C@H]1c4c(cc(C)c(OC)c4O)C[C@@H]([C@@H]3O)N1C)OCO2 (stereo partly shown) [Compound 170],Toxicity Data Liver,Liver [9],3.58E-07
same,Toxicity Data Heart,Heart [10],non toxic
same,IC50,P-388,52.2 nM
same,IC50,DU-145 [11],52.2 nM
same,IC50,A-549 [12],52.2 nM
same,Toxicity Data Myelo,Myelo [13],non toxic
same,Toxicity Data Kidney,Kidney [14],3.01E-07
same,Toxicity Data Skeletal,Skeletal [15],3.29E-07
same,antitumor activity (in words),tumor cell culture,active
same,IC50,MEL-28,52.2 nM
same,IC50,HT-29 [16],52.2 nM
